# In patent US5935973A, “Heterocyclcarboxamide derivatives and their use as therapeutic agents” (Knoll Aktiengesellschaft, priority 1995, dated 1999):
# Molecular target: α1-adrenoceptors
# Test: inhibition of [7-methoxy-3H]prazosin binding to α1-adrenoceptors in rat whole cortical tissue
# Conditions: rat whole cortex, 30 min; for Ki: [7-methoxy-3H]prazosin 0.1 nM, 30° C.; for % displacement of radio ligand, α1: at 10^-6 M, [7-methoxy-3H]prazosin, 1 µM
# Method: Whole cortical tissue from the brains of male Charles River CD rats weighing between 150-250 g were homogenised in ice-cold 50 mM Tris-HCl, pH 7.6 (at 25° C.; 1:40 w/v) and centrifuged at 1000 g at 4° C. for 10 minutes. The supernatant was centrifuged at 30,000 g at 4° C. for 10 minutes. The pellet was rehomogenised in 50 mM Tris-HCl, pH 7.6 (1:40 w/v) and centrifuged at 30,000 g at 4° C. for 10 minutes. The final pellet was resuspended in 50 mM Tris-HCl, pH 7.6 (equivalent to 12.5 mg wet weight of tissue/ml) and used immediately in the binding assay. Aliquots (400 μl; equivalent to 5 mg wet weight of tissue/tube) of this suspension were added to tubes containing the ligand (50 μl; 0.1 nM) and distilled water (50 μl; total binding) or phentolamine (50 μl; 5 μM; non-specific binding) or test compound (50 μl; at a single concentration of 10^-6 M or at 10 concentrations ranging from 10^-11 -10^-3 M). The ligand was [7-methoxy-^3 H]prazosin and the mixture was incubated at 30° C. for 30 minutes before the incubation was terminated by rapid filtration.
# The filters were washed with ice-cold Tris-HCl buffer and dried. The filters were punched out into vials, scintillation fluid added and radioactivity determined by liquid scintillation counting. The percentage displacement of specific binding of the tritiated ligand was calculated for the single concentration (10^-6 M) of test compound. Displacement curves were then produced for those compounds which displaced ≥50% of specific binding of the tritiated ligand at 10^-6 M using a range of concentrations of the compound. The concentration which gave 50% inhibition of specific binding (IC50) was obtained from the curve. The inhibition coefficient Ki was then calculated using the formula [formula] in which [ligand] is the concentration of the tritiated ligand used and KD is the equilibrium dissociation constant for the ligand.
SMILES,Ki [nM],"% displacement of radio ligand, α1 [%]"
"O=C(NCC1CCN(C[C@H]2COc3ccc(Cl)cc3O2)CC1)c1cccc2cccnc12 [Example 23, (S)-N-{[1-(7-chloro-1,4-benzodioxan-2-ylmethyl)-4-piperidyl]methyl}quinoline-8-carboxamide]",44,
"Nc1ncccc1C(=O)NCC1CCN(CC2COc3ccccc3O2)CC1 (stereo not drawn) [Example 4, 2-amino-N-{[1-(1,4-benzodioxan-2-ylmethyl)-4-piperidyl]methyl}pyridine-3-carboxamide]",,89
"Cc1ccc2c(c1)O[C@@H](CN1CCC(CNC(=O)c3cccnc3N)CC1)CO2 [Example 5, (S)-2-amino-N-{[1-(7-methyl-1,4-benzodioxan-2-ylmethyl)-4-piperidyl]methyl}pyridine-3-carboxamide]",65,
"Nc1ccsc1C(=O)NCC1CCN(C[C@H]2COc3ccc(Cl)cc3O2)CC1 [Example 17, (S)-3-amino-N-{[1-(7-chloro-1,4-benzodioxan-2-ylmethyl)-4-piperidyl]methyl}thiophene-2-carboxamide]",70,
"COc1ccc2c(c1)O[C@@H](CN1CCC(CNC(=O)c3cccnc3N)CC1)CO2 [Example 7, (S)-2-amino-N{[1-(7-methoxy-1,4-benzodioxan-2-ylmethyl)-4-piperidyl]methyl}-pyridine-3-carboxamide]",104,
"O=C(NCC1CCN(CC2COc3ccccc3O2)CC1)c1ccccn1 (stereo not drawn) [Example 6, N-{[1-(1,4-benzodioxan-2-ylmethyl)-4-piperidyl]methyl}pyridine-2-carboxamide]",21,
"O=C(NCC1CCN(C[C@H]2COc3ccc(Cl)cc3O2)CC1)c1cccnc1 [Example 22, (S)-N-{[1-(7-chloro-1,4-benzodioxan-2-ylmethyl)-4-piperidyl]methyl}pyridine-3-carboxamide]",172,
"Cc1ncccc1C(=O)NCC1CCN(C[C@H]2COc3ccc(Cl)cc3O2)CC1 [Example 18, (S)-N-{[1-(7-chloro-1,4-benzodioxan-2-ylmethyl)-4-piperidyl]methyl}-2-methylpyridine-3-carboxamide]",298,
"Nc1ncccc1C(=O)NCC1CCN(C[C@H]2COc3cccc(Cl)c3O2)CC1 [Example 2, (S)-2-amino-N-{[1-(8-chloro-1,4-benzodioxan-2-ylmethyl)-4-piperidyl]methyl}-pyridine-3-carboxamide]",,100
"O=C(NCC1CCN(C[C@H]2COc3ccc(Cl)cc3O2)CC1)c1ccccn1 [Example 12, (S)-N-{[1-(7-chloro-1,4-benzodioxan-2-ylmethyl)-4-piperidyl]methyl}pyridine-2-carboxamide]",132,
"Nc1ncccc1C(=O)NCC1CCN(C[C@H]2COc3ccc(Cl)cc3O2)CC1 [Example 1, (S)-(-)-2-amino-N-{[1-(7-chloro-1,4-benzodioxan-2-ylmethyl)-4-piperidyl]methyl}pyridine-3-carboxamide]",,89
"Nc1ncccc1C(=O)NCC1CCN(CC2COc3ccc(F)cc3O2)CC1 (stereo not drawn) [Example 10, 2-amino-N-{[1-(7-fluoro-1,4-benzodioxan-2-ylmethyl)-4-piperidyl]methyl}pyridine-3-carboxamide]",140,
"Cc1ccc(C(=O)NCC2CCN(C[C@H]3COc4ccc(Cl)cc4O3)CC2)c(N)n1 [Example 14, (S)-2-amino-N-{[1-(7-chloro-1,4-benzodioxan-2-ylmethyl)-4-piperidyl]methyl}-6-methylpyridine-3-carboxamide]",75,

# The remaining compounds from weak to strong by Ki, led by results:
Ki [nM],"% displacement of radio ligand, α1 [%]",SMILES
20,,"Cc1ncccc1C(=O)NCC1CCN(C[C@H]2COc3cccc(Cl)c3O2)CC1 [Example 9, (S)-N-{[1-(8-chloro-1,4-benzodioxan-2-ylmethyl)-4-piperidyl]methyl}-2-methylpyridine-3-carboxamide]"
18,,"COc1cccc2c1OC(CN1CCC(CNC(=O)c3cccnc3N)CC1)CO2 (stereo not drawn) [Example 11, 2-amino-N-{[1-(8-methoxy-1,4-benzodioxan-2-ylmethyl)-4-piperidyl]methyl}pyridine-3-carboxamide]"
17,,"Nc1ncccc1C(=O)NCC1CCN(C[C@H]2COc3ccccc3O2)CC1 [Example 15, (S)-2-amino-N-{[1-(1,4-benzodioxan-2-ylmethyl)-4-piperidyl]methyl}pyridine-3-carboxamide]"
10,,"Cc1cccc2c1O[C@@H](CN1CCC(CNC(=O)c3cccnc3N)CC1)CO2 [Example 13, (S)-2-amino-N-{[1-(8-methyl-1,4-benzodioxan-2-ylmethyl)-4-piperidyl]methyl}pyridine-3-carboxamide]"
8,,"O=C(NCC1CCN(CC2COc3ccccc3O2)CC1)c1cccc2cccnc12 (stereo not drawn) [Example 8, N-{[1-(1,4-benzodioxan-2-ylmethyl)-4-piperidyl]methyl}quinoline-8-carboxamide]"
5.3,,"Nc1ncccc1C(=O)NCC1CCN(C[C@H]2COc3cccc(F)c3O2)CC1 [Example 3, (S)-(-)-2-amino-N-{[1-(8-fluoro-1,4-benzodioxan-2-ylmethyl)-4-piperidyl]methyl}pyridine-3-carboxamide]"
4,,"Nc1ncccc1C(=O)NCC1CCN(C[C@H]2COc3cccc(C(F)(F)F)c3O2)CC1 [Example 20, (S)-2-amino-N-{[1-(8-trifluoromethyl-1,4-benzodioxan-2-ylmethyl)-4-piperidyl]methyl}pyridine-3-carboxamide]"
2,,"Nc1ccsc1C(=O)NCC1CCN(CC2COc3ccccc3O2)CC1 (stereo not drawn) [Example 16, 3-amino-N-{[1-(1,4-benzodioxan-2-ylmethyl)-4-piperidyl]methyl}thiophene-2-carboxamide]"
